Tested on: B16F10 melanoma tumor cells
Test: In vivo anti-cancer efficacy in melanoma tumor model
Design: species or system C57B1/6J mice
Details: subcutaneous B16F10 melanoma in mice
Protocol: Finally, in vivo anti-cancer efficacy of DOX-STB was analyzed in a melanoma tumor model made by subcutaneous injection of B16F10 melanoma tumor cells into C57B1/6J mice (FIG. 7A).

## COc1cccc2c1C(=O)c1c(O)c3c(c(O)c1C2=O)C[C@@](O)(C(=O)CO)C[C@@H]3O[C@H]1C[C@H](N)[C@H](O)[C@H](C)O1 [DOX, doxorubicin]
  tumor size in gross: tumor size decreased

Reference: patent publication US12318401B2, “Injectable shear-thinning hydrogel containing therapeutic agent for enhanced tumor therapy” (MAYO FOUNDATION FOR MEDICAL EDUCATION AND RESEARCH, priority 2021, dated 2025)
